Target: T1, drMfsd2a (Danio rerio isoform B Mfsd2a) (Danio rerio, UniProt Q6DEJ6, N214Q/N225Q/N509Q)
T1 construct: gene mfsd2ab; recombinant in Sf-9 insect cells, N-terminal 10xHis tag removed by TEV; truncated at D22 and D509; DDM-purified
T1 sequence (Q6DEJ6 22-509 N214Q/N225Q/N509Q): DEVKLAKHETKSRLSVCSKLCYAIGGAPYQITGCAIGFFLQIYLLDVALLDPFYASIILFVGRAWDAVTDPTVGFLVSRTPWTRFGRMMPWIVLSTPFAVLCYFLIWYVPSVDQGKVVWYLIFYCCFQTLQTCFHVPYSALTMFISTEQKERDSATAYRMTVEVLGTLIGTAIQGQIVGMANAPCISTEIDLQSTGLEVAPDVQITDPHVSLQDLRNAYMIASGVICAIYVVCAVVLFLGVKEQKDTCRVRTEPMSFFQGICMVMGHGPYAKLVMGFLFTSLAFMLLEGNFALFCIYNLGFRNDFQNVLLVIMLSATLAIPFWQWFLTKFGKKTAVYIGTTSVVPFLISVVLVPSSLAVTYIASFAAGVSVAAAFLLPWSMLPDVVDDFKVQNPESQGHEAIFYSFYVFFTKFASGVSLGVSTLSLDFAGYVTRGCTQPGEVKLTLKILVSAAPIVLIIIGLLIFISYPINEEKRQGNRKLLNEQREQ
Test: single-particle cryo-EM structures of Fab complex
Type: binding
Conditions: co-purified endogenous lipid; identity modelled into lipid-like densities at four positions (1A, 1B, 2B, 3C); inward-facing; pH 8.0, 150 mM NaCl, 0.02% DDM

Q: With `CC/C=C\C/C=C\C/C=C\CCCCCCCC(=O)OC[C@@H](O)COP(=O)([O-])OCC[N+](C)(C)C` [ALA-LPC] as the compound, how does the “single-particle cryo-EM structures of Fab complex” value read?
A: The value was “We therefore modeled ALA-LPC into the four distinct lipid-like densities”.

From paper PMC10167227, “Lipid flipping in the omega-3 fatty-acid transporter” (Nature Communications, 2023)
